According to patent publication US6107316A, “Method for treating protozoal infections” (priority 1998, dated 2000):

Experiments:
Toxoplasma gondii [1] = assay: growth inhibition of T. gondii in L929 host cells ([3H]-uracil incorporation); assay type: cell-based; conditions: Toxoplasma gondii, L929 host cells; for inhibition at 0.05 µg/mL: 0.05 μg/ml; for inhibition at 0.5 µg/mL: 0.5 μg/ml; for inhibition at 0.5 µg/mL / inhibition at 5 µg/mL / inhibition at 25 µg/mL: read-out: % Inhibition; for inhibition at 5 µg/mL: 5.0 μg/ml; for inhibition at 25 µg/mL: 25.0 μg/ml
Procedure: (§1) Compounds were tested for it vitro growth inhibitory activity against Toxoplasma gondii replication in L929 (L929-ATCC CCL 1, mouse connective tissue) or HFF (human foreskin fibroblast) host cells using the [^3 H]-uracil incorporation technique as follows. Host cells were grown in 96-well flat-bottom microtiter plates at 37° C in a 5% carbon dioxide environment in modified Eagle's medium containing penicillin, streptomycin and 10% fetal equine serum. Wells containing a homogeneous confluent monolayer of host cells were infected with T. gondii tachyzoites at a ratio of 3 parasites per cell (approximately 6×10^4 tachyzoites per well containing 100 μl of medium). […] Two hours post infection, the cultures were washed to remove free parasites and the various dilutions of test compound were added. Cells were subsequently collected at 24, 48 and 72 hours. Four hours prior to each harvesting 50 Al of [^3 H]-uracil (1 μCi) was added. Cells were collected using a cell harvester and incorporated radioactivity was measured using a scintillation counter. […]

Toxoplasma gondii [2] = assay: growth inhibition of T. gondii in HFF host cells ([3H]-uracil incorporation); assay type: cell-based; conditions: Toxoplasma gondii; for inhibition at 0.5 µg/mL: 0.5 μg/ml; for inhibition at 0.05 µg/mL: 0.05 μg/ml; for inhibition at 25 µg/mL: 25.0 μg/ml
Procedure: as §1

[3] = cytotoxicity towards L929 host cells (Cell Titer 96); conditions: mouse, % Inhibition of host cell growth (values in parenthesis)
Procedure: (§2) Cytotoxicity of the test compounds towards host cells was determined using the Cell Titer 96™ it (Promega Corporation, Madison, Wis.) as follows. Cells were seeded at a concentration of 5×10^3 cells per well containing 100 μl of medium in 96-well flat-bottom microtiter plates and incubated at 37° C. in a 5% carbon dioxide environment for 4 hours. Dilutions of the test compounds prepared as described above were then added, and incubation continued for 24, 48 or 72 hours. Four hours before each of these time points the growth medium containing test compound was replaced with 100 μl of fresh medium followed by addition of 16 μl of the kit dye solution. After incubation at 37° C. for another 4 hours, 100 μl of the kit solubilization/stop solution was added to each well, the contents of the wells were mixed and the plates kept 1 hour at room temperature. The plates were then read spectrophotometrically in a plate reader at a wavelength of 570 nm. […] Atovaquone was included in the test as a standard.

[4] = cytotoxicity towards HFF host cells (Cell Titer 96); conditions: human, % Inhibition of host cell growth (values in parenthesis)
Procedure: as §2

Cryptosporidium parvum = assay: growth inhibitory activity against C. parvum in host MDBKF5D2 cells (immunofluorescence); assay type: cell-based; conditions: Cryptosporidium parvum, 48 h
Procedure: (§3) Compounds were tested for in vitro growth inhibitory activity against C. parvum grown in host MDBKF5D2 cells and for toxicity towards the host cells as follows. […] To test for toxicity towards the host cells, the media containing test compound (200 μl) were introduced into two wells of a 96 well microtiter plate containing confluent MDBKF5D2 cell monolayers and two wells without monolayers, and incubated at 37° C. in an 8% carbon dioxide environment. After 48 hours, the tetrazolium salt MTS (Owen's solution) and phenazine methosulfate were added to each well at concentrations of 333 μg/ml and 25 μM, respectively. The plate was returned to the incubator in the dark to develop for 2 hours, then 100 μl of each supernatant was transferred to a new microtiter plate and read spectrophotometrically in a plate reader at a wavelength of 490 nm. Percent toxicity was calculated by subtracting the mean optical density (OD) of the drug supernatants from the OD of medium control supernatants (no drug), dividing by the OD of the medium control, and multiplying by 100. To test for growth inhibitory activity against C. parvum, 3×10^4 oocysts per well were incubated in mentioned concentrations of each drug at 37° C. (8% CO2) on confluent MDBKF5D2 cell monolayers in 96 well microtiter plates. After 48 hours, the level of infection in each well was determined by means of an immunofluorescence assay. Percent inhibition of growth was calculated by subtracting the mean parasite count in the wells containing test compound from the mean parasite count in the medium control wells (no test compound), dividing by the mean parasite count in the medium control wells, and multiplying by 100. Paromomycin was included in the test as a standard.

[5] = toxicity towards MDBKF5D2 host cells (MTS); conditions: bovine, mdbkf5d2 cells, Cytotoxicity (percent toxicity)
Procedure: as §3

[6] = 24 h, HFF host cells, 24 hours, read-out: % Inhibition
[7] = 24 h, HFF host cells, 5.0 μg/ml, 24 hours, read-out: % Inhibition
[8] = 48 h, HFF host cells, 48 hours, read-out: % Inhibition
[9] = 48 h, HFF host cells, 5.0 μg/ml, 48 hours, read-out: % Inhibition
[10] = 72 h, HFF host cells, 72 hours, read-out: % Inhibition
[11] = 72 h, HFF host cells, 5.0 μg/ml, 72 hours, read-out: % Inhibition

SMILES: O=C1C(O)=C([C@H]2CC[C@H](c3ccc(Cl)cc3)CC2)C(=O)c2ccccc21 [Atovaquone, reference compound]
- inhibition at 0.05 µg/mL (Toxoplasma gondii [1]; L929, 24 h, 24 hours): 80.9%
- inhibition at 0.5 µg/mL (Toxoplasma gondii [1]; L929, 24 h, 24 hours): 85.2%
- inhibition at 5 µg/mL (Toxoplasma gondii [1]; L929, 24 h, 24 hours): 80.3%
- inhibition at 0.05 µg/mL (Toxoplasma gondii [1]; L929, 48 h, 48 hours): 0%
- inhibition at 0.5 µg/mL (Toxoplasma gondii [1]; L929, 48 h, 48 hours): 99%
- inhibition at 5 µg/mL (Toxoplasma gondii [1]; L929, 48 h, 48 hours): 100%
- inhibition at 0.05 µg/mL (Toxoplasma gondii [1]; L929, 72 h, 72 hours): 0%
- inhibition at 0.5 µg/mL (Toxoplasma gondii [1]; L929, 72 h, 72 hours): 98.4%
- inhibition at 5 µg/mL (Toxoplasma gondii [1]; L929, 72 h, 72 hours): 97.8%
- inhibition at 0.5 µg/mL (Toxoplasma gondii [2]; [6]): 98.3%
- inhibition at 5 µg/mL (Toxoplasma gondii [2]; [7]): 95.5%
- inhibition at 0.05 µg/mL (Toxoplasma gondii [2]; 48 h, HFF host cells): 50.5%
- inhibition at 0.5 µg/mL (Toxoplasma gondii [2]; [8]): 77.8%
- inhibition at 5 µg/mL (Toxoplasma gondii [2]; [9]): 99.8%
- inhibition at 0.05 µg/mL (Toxoplasma gondii [2]; 72 h, HFF host cells): 89.4%
- inhibition at 0.5 µg/mL (Toxoplasma gondii [2]; [10]): 99.8%
- inhibition at 5 µg/mL (Toxoplasma gondii [2]; [11]): 100%
- inhibition at 24 h ([3]; L929, 0.05 μg/ml): 0%
- inhibition at 48 h ([3]; L929, 0.05 μg/ml): 0%
- inhibition at 72 h ([3]; L929, 0.05 μg/ml): 0.2%
- inhibition at 24 h ([3]; L929, 0.5 μg/ml): 14.3%
- inhibition at 48 h ([3]; L929, 0.5 μg/ml): 15%
- inhibition at 72 h ([3]; L929, 0.5 μg/ml): 44.4%
- inhibition at 24 h ([3]; L929, 5.0 μg/ml): 20%
- inhibition at 48 h ([3]; L929, 5.0 μg/ml): 54.1%
- inhibition at 72 h ([3]; L929, 5.0 μg/ml): 78.1%
- inhibition at 24 h ([4]; 0.05 μg/ml): 0%
- inhibition at 48 h ([4]; 0.05 μg/ml): 0%
- inhibition at 72 h ([4]; 0.05 μg/ml): 0%
- inhibition at 24 h ([4]; 0.5 μg/ml): 0%
- inhibition at 48 h ([4]; 0.5 μg/ml): 9.6%
- inhibition at 72 h ([4]; 0.5 μg/ml): 1.4%
- inhibition at 24 h ([4]; 5.0 μg/ml): 6.2%
- inhibition at 48 h ([4]; 5.0 μg/ml): 31.1%
- inhibition at 72 h ([4]; 5.0 μg/ml): 28.1%

SMILES: CCC(C)(NC(=O)c1cc(F)c(F)c(F)c1)C(=O)CCl (stereo not shown) [Compound 11]
- inhibition at 5 µg/mL (Toxoplasma gondii [1]; L929, 24 h, 24 hours): 21.5%
- inhibition at 25 µg/mL (Toxoplasma gondii [1]; L929, 24 h, 24 hours): 25.6%
- inhibition at 5 µg/mL (Toxoplasma gondii [1]; L929, 48 h, 48 hours): 80.1%
- inhibition at 25 µg/mL (Toxoplasma gondii [1]; L929, 48 h, 48 hours): 66.1%
- inhibition at 5 µg/mL (Toxoplasma gondii [1]; L929, 72 h, 72 hours): 95.4%
- inhibition at 25 µg/mL (Toxoplasma gondii [1]; L929, 72 h, 72 hours): 73.6%
- inhibition at 5 µg/mL (Toxoplasma gondii [2]; [7]): 73.4%
- inhibition at 25 µg/mL (Toxoplasma gondii [2]; [6]): 91.9%
- inhibition at 5 µg/mL (Toxoplasma gondii [2]; [9]): 98.4%
- inhibition at 25 µg/mL (Toxoplasma gondii [2]; [8]): 98.8%
- inhibition at 5 µg/mL (Toxoplasma gondii [2]; [11]): 97.7%
- inhibition at 25 µg/mL (Toxoplasma gondii [2]; [10]): 97.7%
- inhibition at 24 h ([3]; L929, 5.0 μg/ml): 0%
- inhibition at 48 h ([3]; L929, 5.0 μg/ml): 5.5%
- inhibition at 72 h ([3]; L929, 5.0 μg/ml): 36.9%
- inhibition at 24 h ([3]; L929, 25.0 μg/ml): 22.6%
- inhibition at 48 h ([3]; L929, 25.0 μg/ml): 60.1%
- inhibition at 72 h ([3]; L929, 25.0 μg/ml): 89.6%
- inhibition at 24 h ([4]; 5.0 μg/ml): 2.1%
- inhibition at 48 h ([4]; 5.0 μg/ml): 6.1%
- inhibition at 72 h ([4]; 5.0 μg/ml): 0%
- inhibition at 24 h ([4]; 25.0 μg/ml): 17.5%
- inhibition at 48 h ([4]; 25.0 μg/ml): 20%
- inhibition at 72 h ([4]; 25.0 μg/ml): 50.1%
- inhibition at 0.1 µM (Cryptosporidium parvum): 5.6%
- inhibition at 1 µM (Cryptosporidium parvum): 18.1%
- inhibition at 10 µM (Cryptosporidium parvum): 23.9%
- inhibition at 100 µM (Cryptosporidium parvum): 86.2%
- cytotoxicity at 48 h, 0.1 µM [5]: 0%
- cytotoxicity at 48 h, 1 µM [5]: 0%
- cytotoxicity at 48 h, 10 µM [5]: 0%
- cytotoxicity at 48 h, 100 µM [5]: 2.7%

SMILES: CCC(C)(NC(=O)c1cc(F)cc(F)c1)C(=O)CCl (stereo not shown) [Compound 12]
- inhibition at 0.5 µg/mL (Toxoplasma gondii [1]; L929, 24 h, 24 hours): 42%
- inhibition at 5 µg/mL (Toxoplasma gondii [1]; L929, 24 h, 24 hours): 2.8%
- inhibition at 0.5 µg/mL (Toxoplasma gondii [1]; L929, 48 h, 48 hours): 77.6%
- inhibition at 5 µg/mL (Toxoplasma gondii [1]; L929, 48 h, 48 hours): 55%
- inhibition at 0.5 µg/mL (Toxoplasma gondii [1]; L929, 72 h, 72 hours): 59%
- inhibition at 5 µg/mL (Toxoplasma gondii [1]; L929, 72 h, 72 hours): 86.2%
- inhibition at 0.5 µg/mL (Toxoplasma gondii [2]; [6]): 53.4%
- inhibition at 5 µg/mL (Toxoplasma gondii [2]; [7]): 84.4%
- inhibition at 5 µg/mL (Toxoplasma gondii [2]; 48 h): 97.3%
- inhibition at 0.5 µg/mL (Toxoplasma gondii [2]; [8]): 95.3%
- inhibition at 0.5 µg/mL (Toxoplasma gondii [2]; [10]): 91.6%
- inhibition at 5 µg/mL (Toxoplasma gondii [2]; [11]): 99.8%
- inhibition at 24 h ([3]; L929, 0.5 μg/ml): 8%
- inhibition at 48 h ([3]; L929, 0.5 μg/ml): 0%
- inhibition at 72 h ([3]; L929, 0.5 μg/ml): 0%
- inhibition at 24 h ([3]; L929, 5.0 μg/ml): 18.9%
- inhibition at 48 h ([3]; L929, 5.0 μg/ml): 66.8%
- inhibition at 72 h ([3]; L929, 5.0 μg/ml): 88%
- inhibition at 24 h ([4]; 0.5 μg/ml): 4.6%
- inhibition at 48 h ([4]; 0.5 μg/ml): 5.4%
- inhibition at 72 h ([4]; 0.5 μg/ml): 0%
- inhibition at 24 h ([4]; 5.0 μg/ml): 7.7%
- inhibition at 48 h ([4]; 5.0 μg/ml): 29.1%
- inhibition at 72 h ([4]; 5.0 μg/ml): 41.3%
- inhibition at 0.1 µM (Cryptosporidium parvum): 9.4%
- inhibition at 1 µM (Cryptosporidium parvum): 7.2%
- inhibition at 10 µM (Cryptosporidium parvum): 21.3%
- inhibition at 100 µM (Cryptosporidium parvum): 88.9%
- cytotoxicity at 48 h, 0.1 µM [5]: 11.2%
- cytotoxicity at 48 h, 1 µM [5]: 2.5%
- cytotoxicity at 48 h, 10 µM [5]: 9.9%
- cytotoxicity at 48 h, 100 µM [5]: 9.9%

SMILES: NC[C@@H]1O[C@H](O[C@H]2[C@@H](O)[C@H](O[C@@H]3[C@@H](O)[C@H](N)C[C@H](N)[C@H]3O[C@H]3O[C@H](CO)[C@@H](O)[C@H](O)[C@H]3N)O[C@@H]2CO)[C@H](N)[C@@H](O)[C@@H]1O [Paromomycin, reference compound]
- inhibition at 2000 µg/mL (Cryptosporidium parvum): 77.8%
